Results: US20030144292A1, “Carbocyclic side chain containing, N-substituted metalloprotease inhibitors” (priority 2000, published 2003)

Experiments:
Type in all cases: in vivo
[1] = test system: human subject suffering from rheumatoid arthritis; experiment: Example A: oral tablet treatment of rheumatoid arthritis; conditions: tablet with 15 mg compound, three tablets per day orally for 2 years
Procedure: A tablet composition for oral administration, according to the present invention, is made comprising:
A human subject weighing 60 kg (132 lbs), suffering from rheumatoid arthritis, is treated by a method of this invention. Specifically, for 2 years, a regimen of three tablets per day is administered orally to said subject.

[2] = test system: human subject with a premetastatic tumor; experiment: Example G: parenteral suspension injected next to a premetastatic tumor; conditions: 100 mg/mL suspension, about 2.0 mL injected beside the tumor twice daily, after 30 days
Procedure: A composition for parenteral administration is made comprising:
The above ingredients are mixed, forming a suspension. Approximately 2.0 mL of the suspension is administered, via injection, to a human subject with a premetastatic tumor. The injection site juxtaposes the tumor. This dosage is repeated twice daily, for approximately 30 days.

[3] = test system: human subject suffering from osteoarthritis; experiment: Example B: oral capsule treatment of osteoarthritis; conditions: capsule containing 70 mg daily for 5 years
Procedure: A capsule for oral administration, according to the present invention, is made comprising:
A human subject weighing 90 kg (198 lbs.), suffering from osteoarthritis, is treated by a method of this invention. Specifically, for 5 years, a capsule containing 70 mg of the compound of Example 3 is administered daily to said subject.

[4] = test system: patient having deep corneal abrasion; experiment: Example C: saline-based eye drop for deep corneal abrasion; conditions: 5% w/w drop to each eye twice a day
From the text: A saline-based composition for local administration, according to the present invention, is made comprising:
A patient having deep corneal abrasion applies the drop to each eye twice a day.

[5] = test system: asthma sufferer; experiment: Example E: inhalation aerosol for asthma; conditions: 5.0% w/v aerosol, 0.01 mL sprayed into the mouth while inhaling
[6] = test system: patient suffering from chemical burns; experiment: Example D: topical composition for chemical burns; conditions: 0.20% w/v topical composition at each dressing change (b.i.d.)
From the text: A topical composition for local administration, according to the present invention, is made comprising:
A patient suffering from chemical burns applies the composition at each dressing change (b.i.d.).

COc1ccc(-c2ccc(S(=O)(=O)N(C)C(C(=O)O)C3CCC(O)CC3)cc2)cc1 (centres unmarked) [Example 1, N-{[4′-Methoxy-(1,1′-biphenyl)-4-yl]-sulfonyl-N-methyl-amino}-(4-hydroxycyclohexan-1-yl)-acetic Acid]
inflammation at end of treatment period [1]: reduced inflammation | mobility and pain at end of treatment period [1]: improved mobility without concomitant pain

COc1ccc(-c2ccc(S(=O)(=O)N(C)[C@@H](C(=O)O)C3CCC4(CC3)OCCCO4)cc2)cc1 [Example 2, (R)-N-{[4′-methoxy-(1,1′-biphenyl)-4-yl]-sulfonyl}-N-methylamino-(1,5-dioxa-spiro[5.5]undec-9-yl)-acetic Acid]
symptoms of the disease [2]: subside

CN([C@@H](C(=O)O)C1CCC2(CC1)OCCCO2)S(=O)(=O)c1ccc(-c2ccc(Br)cc2)cc1 [Example 3, (R)-N-{[4′-bromo-(1,1′-biphenyl)-4-yl]-sulfonyl}-N-methylamino-(1,5-dioxa-spiro[5.5]undec-9-yl)-acetic Acid]
advancement of erosion/fibrillation of the articular cartilage (x-ray, arthroscopy and/or MRI) [3]: no further advancement

COc1ccc(-c2ccc(S(=O)(=O)N(C)C(C(=O)O)C3(SC)CCCC4(C3)OCCO4)cc2)cc1 (centres unmarked) [Example 10, (7-methylthio-1,4-Dioxaspiro[4.5]dec-7-yl)-N-{[4′-Methoxy-(1,1′-biphenyl)-4-yl]-sulfonyl}-N-methylamino-acetic Acid]
healing of corneal abrasion [4]: speeded | visual sequelae [4]: no visual sequelae

COc1ccc(-c2ccc(S(=O)(=O)N(C)C(C(=O)O)C3CCC(N4CCCC4=O)CC3)cc2)cc1 (centres unmarked) [Example 19, N-{[4′-Methoxy-(1,1′-biphenyl)-4-yl]-sulfonyl-N-methylamino}-[4-(2-oxopyrrolidin-1N-yl)-cyclohexan-1-yl]-acetic Acid]
asthma symptoms [5]: diminished

COc1ccc(-c2ccc(S(=O)(=O)N(C)C(C(=O)O)C3CCC(N4CCOC4=O)CC3)cc2)cc1 (centres unmarked) [Example 21, N-{[4′-Methoxy-(1,1′-biphenyl)-4-yl]-sulfonyl-N-methylamino}-[4-(oxazolidin-2-one-3N-yl)-cyclohexan-1-yl]-acetic Acid]
scarring [6]: substantially diminished
